Assay results as given in article PMC8248988, “A signal capture and proofreading mechanism for the KDEL-receptor explains selectivity and dynamic range in ER retrieval” (eLife, 2021).

Target: T1, human KDELR1 N54K (Homo sapiens, UniProt P24390, N54K)
T1 construct: expressed in transfected cells; host or cells: COS-7
Experiment: ER retrieval assay, KDELR1 N54K-GFP
Type: cell-based
Details: COS-7 cells
Source text: To create KDELR1-GFP and KDELR2-GFP, the reading frames for Homo sapiens KDELR1 (Uniprot: P24390) and KDELR2 (Uniprot: P33947) were cloned into the pEF5/FRT low level mammalian expression vector with a C-terminal 20 amino acid linker made up of 5 copies of Gly-Ser-Ser-Ser followed by GFP. Specific point mutations were introduced using the Quickchange protocol (Stratagene) and are described in the key resources table and figures. To create the mScarlet-KDEL^sec ligand construct, mScarlet with an N-terminal hGH signal peptide and the 16 C-terminal residues of human BiP at its C-terminus, containing the KDEL signal, was cloned into the pcDNA3.1 vector. […] The Golgi marker protein TGN46 was detected by antibody (sheep anti-TGN46 AHP500G; AbD Serotec) and an Alexa 647 conjugated secondary anti-sheep secondary (A-21448, Invitrogen). In Figure 1d and e, endogenous KDELR was detected by antibody (mouse anti-KDELR ADI-VAA-PT048; Enzo Life Sciences) and Alexa 488 conjugated anti-mouse secondary antibody (A-21202, Invitrogen). For retrieval assays in other figures, KDELR-GFP fusion proteins were directly detected by fluorescence. The mScarlet-xDEL fusion proteins were directly detected by fluorescence. […] The fraction of KDEL receptor in the Golgi apparatus was calculated by dividing the Golgi signal by the total cell signal. […]

T1 sequence (P24390 whole entry N54K): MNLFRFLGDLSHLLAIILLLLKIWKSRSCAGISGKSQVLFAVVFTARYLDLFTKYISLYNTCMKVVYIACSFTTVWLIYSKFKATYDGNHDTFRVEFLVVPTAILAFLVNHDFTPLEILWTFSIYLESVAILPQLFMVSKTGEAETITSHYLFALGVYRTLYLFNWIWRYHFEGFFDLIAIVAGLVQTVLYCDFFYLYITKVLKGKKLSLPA

ADEL [pcDNA3.1 hGHss-mScarlet-H. sapiens BiP639-654K651A (ADEL^SEC), secreted mScarlet fusion with human BiP C-terminus, ADEL signal]
ligand-induced receptor retrieval to the ER (in words): did not result in ADEL or DDEL recognition
